One test has as its system ryr1b mutants. As to the kind of experiment: Kaplan-Meier survival of ryr1b mutants. The test is classed as in vivo, zebrafish (Danio rerio). As to conditions: 10 μg/mL from 1 to 50 dpf. How it is done: Kaplan-Meier survival curves of ryr1b mutants treated with either DMSO or NIF (10 μg/mL) from 1 to 50 dpf. Mutants were sorted from unaffected controls at 5 dpf using a touch-evoked escape behavior assay. Untreated fish all died by 35 days of life. Median survival of DMSO-versus NIF-treated mutants was 15.0 and 13.0 days, respectively.
In addition to their muscular defects, ryr1b mutants die prematurely^30. To examine whether long-term treatment with NIF positively impacts the life span of ryr1b mutants, affected larvae (selected at 5 dpf by touch-evoked escape behavior assay) were treated with compound from 1 to 50 dpf.

A further test has as its system wild-type mouse myotubes. The test is described as follows: Calcium imaging, caffeine dose response of depolarization-induced calcium release. The test is classed as cell-based, mouse (C57BL/6N). Particulars: wild-type background, cultured 5 days with compound. As to the method: Tetanic forces were measured following stimulation with 9 biphasic, 200 μs square-wave pulses at 300 Hz (WT-DMSO: 45.6±4.2 kPa, n=5; WT-NIF: 52.8±4.1 kPa, n=5; ryr1b-DMSO: 11.4±1.3 kPa, n=7; ryr1b-NIF: 25.4±4.0 kPa, n=7). Significance was determined by a one-way ANOVA (F=29.61, P<0.0001), followed by pairwise Tukey's HSD post hoc tests. […] Non-linear regression data of curves were not statistically different, as determined by an extra sum-of-squares F test (P=1.0).
Primary myoblasts from C57BL/6N mice were isolated and differentiated as described previously^39. Calcium imaging was performed 5 days after differentiation in myotubes loaded with 3 μM Fluo-4-AM (Life Technologies). Myotubes were imaged in imaging buffer (125 mM NaCl, 5 mM KCl, 2 mM CaCl2, 1.2 mM MgSO4, 6 mM glucose, 2 mM Ca^2+, 25 mM Hepes/Tris, pH 7.4) at 490-500 nm with a Stanford Photonics 10 bit digital intensified CCD using a DG4 multi-wavelength light source. Fluorescent emission at 510 was acquired and analyzed using QED Imaging software (QED Software, Pittsburgh, Pa., USA) from regions of interest within each myotube at 30 frames per second. Sensitivity to K^+-depolarization and caffeine-activation were determined by a 5 second perfusion with 5-6 volumes of KCl (10 mM to 60 mM) or caffeine (3 mM to 40 mM). […]

Entries after “also recorded” stand apart in the source; their conditions may differ.

For `O=C(N/N=C/c1ccc([N+](=O)[O-])o1)c1ccc(O)cc1` [Nifuroxazide], the “survival of ryr1b mutants” value in the test with ryr1b mutants (listed as NIF) is reported as “did not significantly differ; also recorded: two affected fish treated with NIF survived until termination of the study”. Further, the median survival with ryr1b mutants (ryr1b mutants, DMSO 15.0 days, log-rank P=0.5) is listed as 13.0 days. In the test with wild-type mouse myotubes, the “calcium release in response to caffeine” value is listed as “only very modest increases in calcium release”.

The record behind these values is patent US10973912B2, “Treatment for myopathy” (Children's Medical Center Corporation, priority 2015, dated 2021).
